Measurements published in patent publication US20250163043A1 (TRANSTHERA SCIENCES (NANJING), INC., priority 2021, published 2025).
Read-outs that look alike come from different tables or passages of the source.

Assays:
Assay type in all cases: biochemical
CDK5/p25NCK = CDK5/p25NCK (Homo sapiens, UniProt Q00535); assay: ADP-Glo kinase assay on CDK enzymatic activity, CDK5/p25NCK; conditions: 10 concentrations from 10 μM, 4-fold, 60 min room temperature
Excerpt: (§1) Test samples: the compounds of the present invention, having structures shown above.
(§2) ADP-Glo Kinase Assay (ADP-Glo kinase kit), DMSO (dimethyl sulfoxide), CDK9/CycT1 (cyclin-dependent kinase 9/cyclin T1), CDK tide (cyclin-dependent kinase substrate peptide fragments), CDK1/CycE1 (cyclin-dependent kinase 1/cyclin E1), CDK2/CycA2 (cyclin-dependent kinase 2/cyclin A2), CDK3/CycE1 (cyclin-dependent kinase 3/cyclin E1), CDK4/CycD3 (cyclin-dependent kinase 4/cyclin D3), CDK5/p25NCK (cyclin-dependent kinase 5/p25), and AZD 4573.
(§3) A 384-well white plate, a 96-well plate, a microplate oscillator, a centrifuge, and a microplate reader.
(§4) The compounds were dissolved in DMSO and diluted 4-fold in the 96-well plate to obtain stock solutions with 10 concentration gradients, and added into a 384-well plate system to obtain a series of 10 concentration gradients of compound solutions with final concentrations of 10 μM starting and 4-fold gradient decreasing. 1 μM AZD4573 was used as compound positive control (PC) and 0.5% DMSO as solvent vehicle control (VC), ten duplicated wells each for PC and VC.
(§5) 1 μL of compound solution and 2 μL of 2× kinase solution were transferred to each well, and the plate was centrifuged at 1000 g for 30 s and left at room temperature for 10 min. A mixture of 2× substrate and ATP was prepared in 1× kinase buffer. The reaction was started after adding 2 μL of substrate and ATP into the plate. The plate was centrifuged at 1000 g for 30 s. The assay plate was closed and left at room temperature for 60 min. The reaction system was added with 4 μL of ADP Glo reagent, centrifuged at 1000 rpm for 1 min, and incubated at room temperature for 40 min. The reaction system was added with 8 μL of kinase assay reagent, centrifuged at 1000 rpm for 1 min and incubated at room temperature for 40 min. The […] was read on Biotek.
(§6) The inhibition rate was calculated according to the following formula: […]
(§7) Lumcmpd: compound fluorescence reading; Lumpositive: average value of the fluorescence reading of positive compound control; Lumvehicle: average value of the fluorescence reading of solvent vehicle control.
(§8) IC50 values were fitted using GraphPad 7.0 based on inhibition rates of compounds at different concentrations.

CDK3/CycE1 = CDK3/CycE1 (Homo sapiens, UniProt Q00526); assay: ADP-Glo kinase assay on CDK enzymatic activity, CDK3/CycE1; conditions: 10 concentrations from 10 μM, 4-fold, 60 min room temperature
Excerpt: as §1, §2, §3, §4, §5, §6, §7, §8

CDK9/CycT1 = CDK9/CycT1 (Homo sapiens, UniProt P50750); assay: ADP-Glo kinase assay on CDK enzymatic activity, CDK9/CycT1; conditions: 10 concentrations from 10 μM, 4-fold, 60 min room temperature
Excerpt: as §1, §2, §3, §4, §5, §6, §7, §8

CDK2/CycA2 = CDK2/CycA2 (Homo sapiens, UniProt P24941); assay: ADP-Glo kinase assay on CDK enzymatic activity, CDK2/CycA2; conditions: 10 concentrations from 10 μM, 4-fold, 60 min room temperature
Excerpt: as §1, §2, §3, §4, §5, §6, §7, §8

CDK1/CycE1 = CDK1/CycE1 (Homo sapiens, UniProt P06493); assay: ADP-Glo kinase assay on CDK enzymatic activity, CDK1/CycE1
Method: as §1, §3, §4, §5, §6, §7, §8

[1] = ADP-Glo, 10 concentrations from 10 μM, 4-fold, 60 min room temperature, read-out: CDK1/CycE1/nM (IC50)

CDK1/CycE1, sequence (P06493 whole entry, species assumed): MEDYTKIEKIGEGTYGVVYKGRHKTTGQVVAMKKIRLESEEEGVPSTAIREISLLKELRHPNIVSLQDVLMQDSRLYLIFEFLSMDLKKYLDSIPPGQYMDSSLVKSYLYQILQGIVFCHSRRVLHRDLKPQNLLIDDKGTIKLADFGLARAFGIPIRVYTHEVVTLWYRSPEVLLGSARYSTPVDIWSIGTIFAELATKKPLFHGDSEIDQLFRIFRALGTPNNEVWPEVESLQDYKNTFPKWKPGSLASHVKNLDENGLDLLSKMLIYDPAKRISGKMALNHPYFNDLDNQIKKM
CDK1/CycE1, sequence (P24864 whole entry partner, species assumed): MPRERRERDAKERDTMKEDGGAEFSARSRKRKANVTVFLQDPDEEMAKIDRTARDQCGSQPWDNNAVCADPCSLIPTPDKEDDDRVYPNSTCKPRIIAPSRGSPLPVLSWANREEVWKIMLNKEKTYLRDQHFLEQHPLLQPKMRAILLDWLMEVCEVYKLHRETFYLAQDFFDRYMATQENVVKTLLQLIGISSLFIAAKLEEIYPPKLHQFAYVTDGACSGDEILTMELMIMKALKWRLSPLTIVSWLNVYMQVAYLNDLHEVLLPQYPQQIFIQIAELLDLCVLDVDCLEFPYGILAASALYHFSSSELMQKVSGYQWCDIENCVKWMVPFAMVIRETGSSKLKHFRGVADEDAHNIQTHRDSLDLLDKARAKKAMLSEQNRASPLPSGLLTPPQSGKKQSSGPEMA
CDK9/CycT1, sequence (P50750 whole entry): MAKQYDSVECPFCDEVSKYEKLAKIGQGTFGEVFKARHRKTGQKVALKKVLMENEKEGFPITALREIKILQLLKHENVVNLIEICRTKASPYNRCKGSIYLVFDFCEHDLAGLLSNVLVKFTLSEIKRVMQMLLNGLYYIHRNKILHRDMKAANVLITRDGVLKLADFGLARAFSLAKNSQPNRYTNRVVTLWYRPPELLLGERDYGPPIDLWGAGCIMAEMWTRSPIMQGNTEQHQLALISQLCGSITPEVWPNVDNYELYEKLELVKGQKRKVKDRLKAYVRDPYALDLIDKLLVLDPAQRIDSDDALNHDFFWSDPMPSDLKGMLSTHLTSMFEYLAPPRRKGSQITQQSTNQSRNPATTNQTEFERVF
CDK9/CycT1, sequence (O60563 whole entry partner): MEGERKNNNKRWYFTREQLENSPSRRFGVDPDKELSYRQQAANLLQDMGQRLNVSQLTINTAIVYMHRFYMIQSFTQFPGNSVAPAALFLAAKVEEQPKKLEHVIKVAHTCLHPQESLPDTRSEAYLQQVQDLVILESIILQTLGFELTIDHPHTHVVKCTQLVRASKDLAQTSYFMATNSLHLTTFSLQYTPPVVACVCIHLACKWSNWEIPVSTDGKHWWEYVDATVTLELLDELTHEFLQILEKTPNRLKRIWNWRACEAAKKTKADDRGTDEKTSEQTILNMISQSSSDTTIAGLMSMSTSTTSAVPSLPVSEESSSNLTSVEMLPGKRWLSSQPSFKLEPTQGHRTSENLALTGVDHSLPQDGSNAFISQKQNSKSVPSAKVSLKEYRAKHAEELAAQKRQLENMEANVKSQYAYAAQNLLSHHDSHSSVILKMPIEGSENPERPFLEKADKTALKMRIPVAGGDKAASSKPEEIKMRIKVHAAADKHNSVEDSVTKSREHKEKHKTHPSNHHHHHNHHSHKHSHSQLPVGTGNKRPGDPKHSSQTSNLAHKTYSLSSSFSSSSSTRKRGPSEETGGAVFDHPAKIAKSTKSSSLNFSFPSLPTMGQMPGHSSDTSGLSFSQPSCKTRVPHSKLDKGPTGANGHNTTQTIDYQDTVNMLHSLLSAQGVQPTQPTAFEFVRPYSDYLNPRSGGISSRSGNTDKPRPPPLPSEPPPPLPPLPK
CDK3/CycE1, sequence (Q00526 whole entry, species assumed): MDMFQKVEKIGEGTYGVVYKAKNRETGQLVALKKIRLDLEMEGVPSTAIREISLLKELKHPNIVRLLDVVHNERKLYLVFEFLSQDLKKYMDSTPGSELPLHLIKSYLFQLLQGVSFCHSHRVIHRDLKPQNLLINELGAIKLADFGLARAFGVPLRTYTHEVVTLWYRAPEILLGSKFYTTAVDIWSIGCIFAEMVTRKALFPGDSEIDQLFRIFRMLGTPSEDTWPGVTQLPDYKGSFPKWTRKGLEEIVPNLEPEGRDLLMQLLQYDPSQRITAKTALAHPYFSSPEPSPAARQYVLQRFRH
CDK3/CycE1, sequence (P24864 whole entry partner, species assumed): as the sequence (P24864 whole entry partner, species assumed) above
CDK5/p25NCK, sequence (Q00535 whole entry, species assumed): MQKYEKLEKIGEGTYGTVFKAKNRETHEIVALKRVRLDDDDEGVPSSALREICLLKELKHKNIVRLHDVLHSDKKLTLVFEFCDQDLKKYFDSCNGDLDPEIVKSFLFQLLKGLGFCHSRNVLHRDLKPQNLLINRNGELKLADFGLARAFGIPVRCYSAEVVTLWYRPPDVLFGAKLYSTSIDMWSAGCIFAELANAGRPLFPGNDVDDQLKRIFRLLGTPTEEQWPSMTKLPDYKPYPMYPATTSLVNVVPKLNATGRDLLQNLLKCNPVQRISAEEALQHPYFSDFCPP
CDK5/p25NCK, sequence (Q15078 99-307 partner limits assumed, species assumed): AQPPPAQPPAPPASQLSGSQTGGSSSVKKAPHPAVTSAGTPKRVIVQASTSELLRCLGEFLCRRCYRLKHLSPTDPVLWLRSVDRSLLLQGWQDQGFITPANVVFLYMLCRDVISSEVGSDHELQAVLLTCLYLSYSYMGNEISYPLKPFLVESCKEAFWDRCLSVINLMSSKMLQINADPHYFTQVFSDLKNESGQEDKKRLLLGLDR

SMILES	IC50 (CDK5/p25NCK)	IC50 (CDK3/CycE1)	IC50 (CDK9/CycT1)	IC50 (CDK2/CycA2)	IC50 (CDK1/CycE1; [1])	IC50 (CDK1/CycE1)
CC(C)Nc1nc(C(F)F)cc2cnc(N[C@H]3CCCNC3)cc12 [Compound 54, (S)-3-(difluoromethyl)-N^1-isopropyl-N^7-(piperidin-3-yl)-2,6-naphthyridine-1,7-diamine]	10 nM	14 nM	1 nM	15 nM	–	–
CC(C)Nc1nc(C#N)cc2cnc(N[C@H]3C[C@@H](N4CCN(C)CC4)C3)nc12 [Compound C23, 8-(isopropylamino)-2-(((1s,3s)-3-(4-methylpiperazin-1-yl)cyclobutyl)amino)pyrido[3,4-d]pyrimidine-6-carbonitrile]	–	–	6 nM	59 nM	288 nM	–
N#Cc1cc2cnc(N[C@H]3C[C@H](N)C3)nc2c(N[C@@H]2CCOC2)n1 [Compound C13, 2-(((1r,3R)-3-aminocyclobutyl)amino)-8-(((R)-tetrahydrofuran-3-yl)amino)pyrido[3,4-d]pyrimidine-6-carbonitrile]	–	–	2 nM	85 nM	187 nM	–
CC(C)Oc1nc(C#N)cc2cnc(N[C@H]3C[C@H](N)C3)cc12 [Compound 207, 7-(((1r,3r)-3-aminocyclobutyl)amino)-1-isopropoxy-2,6-naphthyridine-3-carbonitrile]	–	–	1 nM	29 nM	126 nM	–
N#Cc1cc2cnc(N[C@H]3C[C@H](N)C3)cc2c(N[C@@H]2CCOC2)n1 [Compound 179, 7-(((trans)-3-aminocyclobutyl)amino)-1-(((R)-tetrahydrofuran-3-yl)amino)-2,6-naphthyridine-3-carbonitrile]	–	–	1 nM	144 nM	272 nM	–
CC(C)Nc1nc(C#N)cc2cnc(N[C@H]3C[C@H](N(C)C)C3)nc12 [Compound C24, 2-(((1r,3r)-3-(dimethylamino)cyclobutyl)amino)-8-(isopropylamino)pyrido[3,4-d]pyrimidine-6-carbonitrile]	–	–	2 nM	115 nM	142 nM	–
CCN(CC)c1nc(C#N)cc2cnc(N[C@H]3CCCNC3)cc12 [Compound 171, (S)-1-(diethylamino)-7-(piperidin-3-ylamino)-2,6-naphthyridine-3-carbonitrile]	–	–	4 nM	815 nM	638 nM	–
N#Cc1cc2cnc(N[C@H]3CC[C@H](N)C3)cc2c(N[C@@H]2CCOC2)n1 [Compound 173, 7-(((1S,3S)-3-aminocyclopentyl)amino)-1-(((R)-tetrahydrofuran-3-yl)amino)-2,6-naphthyridine-3-carbonitrile]	–	–	4 nM	436 nM	952 nM	–
CC(C)Nc1nc(C(F)F)cc2cnc(N[C@H]3C[C@H](N)C3)cc12 [Compound 206, N^7-((1r,3r)-3-aminocyclobutyl)-3-(difluoromethyl)-N^1-isopropyl-2,6-naphthyridine-1,7-diamine]	–	–	1 nM	6 nM	25 nM	–
CC(C)Nc1nc(C#N)cc2cnc(N[C@H]3C[C@H](CN)C3)nc12 [Compound C16, 2-(((1r,3r)-3-(aminomethyl)cyclobutyl)amino)-8-(isopropylamino)pyrido[3,4-d]pyrimidine-6-carbonitrile]	–	–	2 nM	22 nM	81 nM	–
N#Cc1cc2cnc(N[C@H]3CCCNC3)cc2c(NC2CCCC2)n1 [Compound 168, (S)-1-(cyclopentylamino)-7-(piperidin-3-ylamino)-2,6-naphthyridine-3-carbonitrile]	–	–	1 nM	125 nM	63 nM	–
CC(C)Nc1nc(C#N)cc2cnc(N[C@H]3C[C@@H](O)C3)nc12 [Compound 133, 2-(((1s,3s)-3-hydroxycyclobutyl)amino)-8-(isopropylamino)pyrido[3,4-d]pyrimidine-6-carbonitrile]	–	–	2 nM	10 nM	29 nM	–
CC(C)Nc1nc(C#N)cc2cnc(N[C@H]3C[C@H](O)C3)cc12 [Compound 166, 7-(((1r,3r)-3-hydroxycyclobutyl)amino)-1-(isopropylamino)-2,6-naphthyridine-3-carbonitrile]	–	–	2 nM	10 nM	14 nM	–
CC(C)(C)Nc1nc(C(F)F)cc2cnc(N[C@H]3C[C@H](O)C3)nc12 [Compound C8, (1r,3r)-3-((8-(tert-butylamino)-6-(difluoromethyl)pyrido[3,4-d]pyrimidin-2-yl)amino)cyclobutan-1-ol]	–	–	2 nM	5 nM	8 nM	–
CCOc1nc(C#N)cc2cnc(N[C@H]3C[C@H](N)C3)cc12 [Compound 191, 7-(((1r,3r)-3-aminocyclobutyl)amino)-1-ethoxy-2,6-naphthyridine-3-carbonitrile]	–	–	5 nM	1110 nM	–	1950 nM
N#Cc1cc2cnc(N[C@H]3CCCNC3)cc2c(N2CCCC2)n1 [Compound 169, (S)-7-(piperidin-3-ylamino)-1-(pyrrolidin-1-yl)-2,6-naphthyridine-3-carbonitrile]	–	–	5 nM	2210 nM	798 nM	–

Continued, in another order:

IC50 (CDK5/p25NCK)	IC50 (CDK3/CycE1)	IC50 (CDK9/CycT1)	IC50 (CDK2/CycA2)	IC50 (CDK1/CycE1; [1])	SMILES	IC50 (CDK1/CycE1)
238 nM	137 nM	2 nM	128 nM	–	CC(C)(C)Nc1nc(C#N)cc2cnc(N[C@H]3CC[C@H](N)C3)cc12 [Compound 34, 7-(((1S,3S)-3-aminocyclopentyl)amino)-1-(tert-butylamino)-2,6-naphthyridine-3-carbonitrile]	–
–	–	3 nM	356 nM	134 nM	N#Cc1cc2cnc(N[C@H]3CCCNC3)cc2c(OC2CCCC2)n1 [Compound 185, (S)-1-(cyclopentyloxy)-7-(piperidin-3-ylamino)-2,6-naphthyridine-3-carbonitrile]	–
–	–	1 nM	34 nM	86 nM	CC(C)CNc1nc(C#N)cc2cnc(N[C@H]3C[C@H](N)C3)nc12 [Compound C25, 2-(((1r,3r)-3-aminocyclobutyl)amino)-8-(isobutylamino)pyrido[3,4-d]pyrimidine-6-carbonitrile]	–
–	–	2 nM	24 nM	218 nM	CC(C)Nc1nc(C#N)cc2cnc(N[C@H]3C[C@H](N4CCN(C)CC4)C3)nc12 [Compound C22, 8-(isopropylamino)-2-(((1r,3r)-3-(4-methylpiperazin-1-yl)cyclobutyl)amino)pyrido[3,4-d]pyrimidine-6-carbonitrile]	–
–	–	1 nM	287 nM	395 nM	CC(C)(C)Nc1nc(C#N)cc2cnc(N[C@H]3C[C@@H](N)C3)cc12 [Compound 172, 7-(((1s,3s)-3-aminocyclobutyl)amino)-1-(tert-butylamino)-2,6-naphthyridine-3-carbonitrile]	–
–	–	2 nM	19 nM	55 nM	CC(=O)N[C@H]1C[C@@H](Nc2cc3c(NC(C)C)nc(C#N)cc3cn2)C1 [Compound 167, N-((1s,3s)-3-((7-cyano-5-(isopropylamino)-2,6-naphthyridin-3-yl)amino)cyclobutyl)acetamide]	–
–	–	2 nM	7 nM	31 nM	CC(C)Nc1nc(C(F)F)cc2cnc(Nc3cc(CS(C)(=N)=O)ccn3)cc12 (centres unmarked) [Compound 163, ((2-((7-(difluoromethyl)-5-(isopropylamino)-2,6-naphthyridin-3-yl)amino)pyridin-4-yl)methyl)(methyl)sulfinylimine]	–
–	–	1 nM	5 nM	11 nM	CC(C)Nc1nc(C#N)cc2cnc(N[C@H]3C[C@H](O)C3)nc12 [Compound 134, 2-(((1r,3r)-3-hydroxycyclobutyl)amino)-8-(isopropylamino)pyrido[3,4-d]pyrimidine-6-carbonitrile]	–
–	–	2 nM	8 nM	23 nM	CC(C)(C)Nc1nc(C#N)cc2cnc(N[C@H]3C[C@H](N)C3)nc12 [Compound C18, 2-(((1r,3r)-3-aminocyclobutyl)amino)-8-(tert-butylamino)pyrido[3,4-d]pyrimidine-6-carbonitrile]	–
–	–	2 nM	253 nM	114 nM	N#Cc1cc2cnc(N[C@H]3C[C@H](N)C3)nc2c(N2CCCCC2)n1 [Compound C15, 2-(((1r,3r)-3-aminocyclobutyl)amino)-8-(piperidin-1-yl)pyrido[3,4-d]pyrimidine-6-carbonitrile]	–
